Calls of active or inactive are those of the source. No cut-off for these calls is given here.
Legend:
Enterococcus faecium = assay: Antimicrobial activity against Enterococcus faecium ATCC 29212 incubated for 16 to 20 hrs by CLSI based broth dilution method; format: functional; details: Enterococcus faecium, ATCC 29212, time 16-20 hrs; read-out: MIC
Escherichia coli = assay: Antimicrobial activity against Escherichia coli ATCC 25922 incubated for 16 to 20 hrs by CLSI based broth dilution method; format: functional; details: Escherichia coli, ATCC 25922; time 16-20 hrs; read-out: MIC
Staphylococcus aureus [1] = assay: Induction of ROS accumulation in Staphylococcus aureus ATCC 29213 at 0.5 ug/ml incubated for 30 mins by DCF-DA staining based fluorescence analysis; format: functional, organism-based; details: dose 0.5 µg/ml
Staphylococcus aureus [2] = assay: Bactericidal activity against Staphylococcus aureus ATCC 29213 assessed as reduction in bacterial growth at 8 ug/ml measured upto 24 hrs; format: functional, organism-based; details: dose 8.0 µg/ml
[3] = Induction of drug resistance in Staphylococcus aureus ATCC 29213 assessed as test compound MIC at sub-MIC measured after 20 days (reference value: 1 ug/ml); format: functional; details: ATCC 29213, 480 h, time 20 day
Staphylococcus aureus [4] = assay: Induction of ROS accumulation in Staphylococcus aureus ATCC 29213 at 1 ug/ml incubated for 30 mins in presence of N-acetyl-L-cysteine by DCF-DA staining based fluorescence analysis; format: functional, organism-based; details: dose 1.0 µg/ml
Staphylococcus aureus [5] = assay: Bactericidal activity against Staphylococcus aureus ATCC 29213 incubated for 16 to 20 hrs in presence of 50% plasma by broth dilution method; format: functional, organism-based; details: time 16-20 hrs
Staphylococcus aureus [6] = assay: Antibacterial activity against Staphylococcus aureus ATCC 29213 assessed as inhibition of bacterial growth at 1 ug/ml incubated for 16 to 18 hrs in presence of genomic DNA at 0.125 to 4 ug/ml by microplate reader analysis; format: functional, organism-based; details: dose 1.0 µg/ml, time 16-18 hrs
Staphylococcus aureus [7] = assay: Antibacterial activity against Staphylococcus aureus ATCC 29213 assessed as increase in MIC incubated for 18 hrs in presence of cardiolipin incubated for 18 hrs by checkerboard dilution assay; format: functional, organism-based
Staphylococcus aureus [8] = assay: Antibacterial activity against Staphylococcus aureus ATCC 29213 assessed as fold increase in MIC incubated for 18 hrs in presence of phosphatidylethanolamine at 64 ug/ml incubated for 18 hrs by checkerboard dilution assay relative to control; format: functional
Staphylococcus aureus [9] = assay: Antimicrobial activity against Staphylococcus aureus ATCC 29213 incubated for 16 to 20 hrs by CLSI based broth dilution method; format: functional; details: Staphylococcus aureus, ATCC 29213; time 16-20 hrs; read-out: MIC
Staphylococcus aureus [10] = assay: Antibacterial activity against Staphylococcus aureus ATCC 29213 assessed as fold increase in MIC incubated for 18 hrs in presence of phosphatidylglycerol incubated for 18 hrs by checkerboard dilution assay relative to control; format: functional
Cell membrane [11] = assay: Induction of membrane depolarization in Staphylococcus aureus ATCC 29213 assessed as increase in fluorescence intensity treated for 6 mins prior to compound addition and further measured for 20 mins by DiSC3-5 dye based fluorescence analysis; format: subcellular; details: dose 16-64 µg/ml
Staphylococcus aureus [12] = assay: Antimicrobial activity against methicillin-resistant Staphylococcus aureus infected in Kunming female mouse assessed as reduction in neutrophil levels in skin at 5 to 10 mg/kg/day administered at labeled position and measured after 24 hrs by H and E staining based analysis; format: functional, organism-based; details: dose 5-10 mg/kg/day
Staphylococcus aureus [13] = assay: Antimicrobial activity against methicillin-resistant Staphylococcus aureus infected in Kunming female mouse assessed as reduction in bacterial load in skin at 5 mg/kg/day administered at labeled position and measured after 24 hrs relative to control; format: functional; design: scale not given: the % may be the effect or the level left
[14] = Cytotoxicity against human WPMY-1 cells assessed as inhibition of cell growth incubated for 72 hrs by CCK-8 assay; format: toxicity, cell-based
[15] = Cytotoxicity against HUVEC cells assessed as inhibition of cell growth incubated for 72 hrs by CCK-8 assay; format: toxicity, cell-based; details: human
Cell membrane [16] = assay: Induction of membrane damage in Staphylococcus aureus ATCC 29213 assessed as change in membrane shape at 8 ug/ml incubated for 6 hrs by scanning electron microscopic analysis; details: dose 8.0 µg/ml
[17] = tested on: Stenotrophomonas maltophilia; assay: Antimicrobial activity against Stenotrophomonas maltophilia ATCC 17808 incubated for 16 to 20 hrs by CLSI based broth dilution method; format: functional; details: Stenotrophomonas maltophilia, ATCC 17808; time 16-20 hrs; read-out: MIC
Staphylococcus aureus [18] = assay: Antimicrobial activity against methicillin-resistant Staphylococcus aureus incubated for 16 to 20 hrs by CLSI based broth dilution method; format: functional; details: time 16-20 hrs
Cell membrane [19] = assay: Induction of membrane damage in Staphylococcus aureus ATCC 29213 assessed as membrane collapse with flowing contents at 8 ug/ml incubated for 6 hrs by scanning electron microscopic analysis; format: subcellular; details: dose 8.0 µg/ml
Staphylococcus aureus [20] = assay: Induction of ROS accumulation in Staphylococcus aureus ATCC 29213 at 1 ug/ml incubated for 30 mins by DCF-DA staining based fluorescence analysis; format: functional, organism-based; details: dose 1.0 µg/ml
Staphylococcus aureus [21] = assay: Bactericidal activity against Staphylococcus aureus ATCC 29213 assessed as remaining bacterial concentration at 8 ug/ml measured after 8 hrs; format: functional; details: dose 8 µg/ml
[22] = Hemolytic activity in sheep erythrocytes incubated for 1 hr by absorbance based analysis; format: toxicity, cell-based, Ovis aries, Erythrocyte; details: sheep erythrocytes
Staphylococcus aureus [23] = assay: Antimicrobial activity against methicillin-resistant Staphylococcus aureus infected in Kunming female mouse assessed as reduction in skin inflammation at 5 to 10 mg/kg/day administered at labeled position and measured after 24 hrs by H and E staining based analysis; format: functional, organism-based; details: dose 5-10 mg/kg/day
Cell membrane [24] = assay: Induction of membrane disruption in Staphylococcus aureus ATCC 29213 assessed as nucleic acid leakage at 16 ug/ml incubated for 2 hrs by ultra-fine fluorescence spectrophotometry analysis; details: dose 16.0 µg/ml
[25] = Cytotoxicity against human BGC cells assessed as inhibition of cell growth incubated for 72 hrs by CCK-8 assay; format: toxicity, cell-based
Cell membrane [26] = assay: Induction of membrane disruption in Staphylococcus aureus ATCC 29213 assessed as increase in red fluorescence at 8 ug/ml incubated for 30 mins by DAPI/PI staining based confocal microscopic analysis; format: subcellular; details: dose 8.0 µg/ml
Cell membrane [27] = assay: Induction of membrane damage in Staphylococcus aureus ATCC 29213 assessed as sticky appearance of bacterial cells at 8 ug/ml incubated for 6 hrs by scanning electron microscopic analysis; format: subcellular; details: dose 8.0 µg/ml
Cell membrane [28] = assay: Induction of membrane damage in Staphylococcus aureus ATCC 29213 assessed as shrunken bacterial cell surface at 8 ug/ml incubated for 6 hrs by scanning electron microscopic analysis; format: subcellular; details: dose 8.0 µg/ml
Staphylococcus aureus [29] = assay: Antimicrobial activity against methicillin-resistant Staphylococcus aureus infected in Kunming female mouse assessed as reduction in bacterial load in skin at 10 mg/kg/day administered at labeled position and measured after 24 hrs relative to control; format: functional; design: scale not given: the % may be the effect or the level left
Staphylococcus aureus [30] = assay: Antimicrobial activity against methicillin-resistant Staphylococcus aureus incubated for 16 to 20 hrs by broth microdilution method; format: functional; details: time 16-20 hrs

## CCCCCC[N+](C)(C)CCCOc1cccc(-c2cccc(OCCC[N+](C)(C)CCCCCC)c2)c1.[Br-].[Br-]
Enterococcus faecium
  MIC: 8 µg/mL
Escherichia coli
  MIC: 16 µg/mL
Staphylococcus aureus [1]
  Activity: Active
Staphylococcus aureus [2]
  Activity: Active
[3]
  MIC: 1 µg/mL
Staphylococcus aureus [4]
  Activity: inactive
Staphylococcus aureus [5]
  Activity: Active
Staphylococcus aureus [6]
  Activity: Active
Staphylococcus aureus [7]
  Activity: Active
Staphylococcus aureus [8]
  fold change (FC): 2
Staphylococcus aureus [9]
  MIC: 1 µg/mL
Staphylococcus aureus [10]
  fold change (FC): 16
Cell membrane [11]
  Activity: Dose-Dependent Effect
Staphylococcus aureus [12]
  Activity: Active
Staphylococcus aureus [13]
  Activity: 99.67%
[14]
  IC50 at 72 h: 23.3 µg/mL
[15]
  IC50 at 72 h: 24.6 µg/mL
Cell membrane [16]
  Activity: Active
[17]
  MIC: 16 µg/mL
Staphylococcus aureus [18]
  MIC90: 1 µg/mL
Cell membrane [19]
  Activity: Active
Staphylococcus aureus [20]
  Activity: inactive
Staphylococcus aureus [21]
  Activity: <1 10^2CFU/ml
[22]
  HC50 at 1 h: 905 µg/mL
Staphylococcus aureus [23]
  Activity: Active
Cell membrane [24]
  Activity: Active
[25]
  IC50 at 72 h: 18.8 µg/mL
Cell membrane [26]
  Activity: Active
Cell membrane [27]
  Activity: Active
Cell membrane [28]
  Activity: Active
Staphylococcus aureus [29]
  Activity: 99.93%

## CCCCCCCC[N+](C)(C)CCCCCOc1ccc(OCCCCC[N+](C)(C)CCCCCCCC)cc1.[Br-].[Br-]
Staphylococcus aureus [30]
  MIC: 0.25 µg/mL
[22]
  HC50 at 1 h: 1210 µg/mL

Source: ChEMBL document CHEMBL5331085 (Eur J Med Chem, 2023)
